This experiment concerns P388 leukemia ip, CD2F1 mice, survival T/C. The experiment can be described thus: NCI In Vivo Anticancer Drug Screen. Data for tumor model P388 Leukemia (intraperitoneal) in CD2F1 (CDF1) mice. The following applies: endpoint: median survival time, higher = longer survival. The method, boiled down: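 Mice carrying the transplanted tumor received test compound or vehicle. Survival was recorded in each group, and the value is the treated-group measurement divided by that of the vehicle-treated control group.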

[1] abbreviates: dose: 50.0 mg/kg/injection, schedule: Q01DX009 (ip), vehicle: Klucel (hydroxypropylcellulose) (HPC).
[2] abbreviates: dose: 100.0 mg/kg/injection, schedule: Q01DX009 (ip), vehicle: Klucel (hydroxypropylcellulose) (HPC).
Where [3] appears, read: dose: 200.0 mg/kg/injection, schedule: Q01DX009 (ip), vehicle: Klucel (hydroxypropylcellulose) (HPC).

“And” between values parts separate entries of the source, which are not always exact repeats. Equal entries are not always repeated. Toxic doses and inconclusive results are not listed.

With `C=CCN(CC=C)C1CCOC(OC)C1O` (configuration not stated), the T/C was 100 % of control and 112 % of control (dose: 30.0 mg/kg/injection, schedule: Q01DX005 (ip), vehicle: saline); 113 % of control [middle of 4 runs] (dose: 60.0 mg/kg/injection, schedule: Q01DX005 (ip), vehicle: saline); 119 % of control [middle of 4 runs] (dose: 120.0 mg/kg/injection, schedule: Q01DX005 (ip), vehicle: saline); 99 % of control and 119 % of control and 123 % of control (dose: 240.0 mg/kg/injection, schedule: Q01DX005 (ip), vehicle: saline).

`COc1cc2cc[n+](C)cc2cc1OC`: the T/C was 90 % of control (dose: 6.25 mg/kg/injection, schedule: Q01DX009 (ip), vehicle: water); 102 % of control (dose: 12.5 mg/kg/injection, schedule: Q01DX009 (ip), vehicle: water); 121 % of control (dose: 22.0 mg/kg/injection, schedule: Q01DX009 (ip), vehicle: water); 107 % of control (dose: 25.0 mg/kg/injection, schedule: Q01DX009 (ip), vehicle: water); 115 % of control (dose: 33.0 mg/kg/injection, schedule: Q01DX009 (ip), vehicle: water); 121 % of control (dose: 75.0 mg/kg/injection, schedule: Q01DX009 (ip), vehicle: water). The T/C (dose: 100.0 mg/kg/injection, schedule: Q01DX009 (ip), vehicle: water) is 123 % of control.

As to `O=C1c2ccccc2CC12OC2c1ccccc1` (configuration not stated), the T/C (dose: 25.0 mg/kg/injection, schedule: Q01DX009 (ip), vehicle: Klucel (hydroxypropylcellulose) (HPC)) is 96 % of control; the T/C under setting [1] was 92 % of control; the T/C under setting [2] was 92 % of control; the T/C under setting [3] is 89 % of control; the T/C (dose: 400.0 mg/kg/injection, schedule: Q01DX009 (ip), vehicle: Klucel (hydroxypropylcellulose) (HPC)) is 92 % of control.

Turning to `O=C(/C=C/c1ccccc1)O[C@@H]1CC2CC1C[C@@H]2c1cnc[nH]1` (some centres not stated), the T/C runs as follows: (dose: 25.0 mg/kg/injection, schedule: Q04DX002 (ip), vehicle: saline with Tween-80) 98 % of control; (dose: 50.0 mg/kg/injection, schedule: Q04DX002 (ip), vehicle: saline with Tween-80) 100 % of control; (dose: 100.0 mg/kg/injection, schedule: Q04DX002 (ip), vehicle: saline with Tween-80) 99 % of control.

Turning to `CCN(CC)C(=O)C(F)C(F)(F)C(F)(F)C(F)(F)C(F)(F)C(F)(F)C(F)(F)F` (configuration not stated), the T/C is, setting by setting: under setting [1], 102 % of control; under setting [2], 101 % of control; under setting [3], 99 % of control.

On to `Cn1c2nc(-[n+]3ccccc3)nc-2c([O-])n(C)c1=O`, for which the T/C was 94 % of control (dose: 100.0 mg/kg/injection, schedule: Q04DX003 (ip), vehicle: saline); 100 % of control (dose: 200.0 mg/kg/injection, schedule: Q04DX003 (ip), vehicle: saline); 100 % of control (dose: 400.0 mg/kg/injection, schedule: Q04DX003 (ip), vehicle: saline).

As for `N#CC1C(=O)NC(=S)NC1c1ccc(C2CC(=O)NC(=S)N2)cc1` (configuration not stated), the T/C by setting is: (dose: 50.0 mg/kg/injection, schedule: Q01DX009 (ip), vehicle: saline with Tween-80) 104 % of control; (dose: 100.0 mg/kg/injection, schedule: Q01DX009 (ip), vehicle: saline with Tween-80) 105 % of control; (dose: 200.0 mg/kg/injection, schedule: Q01DX009 (ip), vehicle: saline with Tween-80) 106 % of control.

Consider `O=C(c1ccccc1)C12CCC(CC1)CC2`, for which the T/C is 94 % of control under setting [1], 94 % of control under setting [2] and 109 % of control under setting [3].

`CC(C)NCC1CCc2cc(CO)c([N+](=O)[O-])cc2N1` (configuration not stated): the T/C (dose: 50.0 mg/kg/injection, schedule: Q01DX005 (ip), vehicle: Klucel (hydroxypropylcellulose) (HPC)) was 105 % of control; the T/C (dose: 100.0 mg/kg/injection, schedule: Q01DX005 (ip), vehicle: Klucel (hydroxypropylcellulose) (HPC)) was 107 % of control; the T/C (dose: 200.0 mg/kg/injection, schedule: Q01DX005 (ip), vehicle: Klucel (hydroxypropylcellulose) (HPC)) is 106 % of control.

With `O=C1c2ccccc2C(=O)N1Cc1cccc(I)c1`, the T/C was 97 % of control (dose: 60.0 mg/kg/injection, schedule: Q01DX005 (ip), vehicle: Klucel (hydroxypropylcellulose) (HPC)) and 94 % of control (dose: 120.0 mg/kg/injection, schedule: Q01DX005 (ip), vehicle: Klucel (hydroxypropylcellulose) (HPC)).

For the compound `C=CC(C)n1[nH]c(=O)n(-c2ccc(O)c([N+](=O)[O-])c2)c1=O` (configuration not stated), the T/C by setting is: (dose: 60.0 mg/kg/injection, schedule: Q01DX005 (ip), vehicle: saline with Tween-80) 100 % of control; (dose: 120.0 mg/kg/injection, schedule: Q01DX005 (ip), vehicle: saline with Tween-80) 98 % of control; (dose: 240.0 mg/kg/injection, schedule: Q01DX005 (ip), vehicle: saline with Tween-80) 94 % of control.

Turning to `Nc1nc(Cl)nc2c1ncn2C1OC(CO)C(O)C1O` (configuration not stated), the T/C by setting is: (dose: 3.1 mg/kg/injection, schedule: Q01DX010 (ip), vehicle: carboxymethylcellulose (CMC)) 105 % of control; (dose: 6.2 mg/kg/injection, schedule: Q01DX010 (ip), vehicle: carboxymethylcellulose (CMC)) 120 % of control; (dose: 25.0 mg/kg/injection, schedule: Q01DX010 (ip), vehicle: carboxymethylcellulose (CMC)) 150 % of control.

For the origin of these results see PubChem BioAssay AID330 (DTP/NCI, 2004).
